Results published in patent US5114925A, “Renin inhibitors containing the 2-[[(2R,3S)-3-amino-4-cyclohexyl-2-hydroxy-1-butyl]thio)alkanoyl moiety and the corresponding sulfoxide and sulfone derivatives” (Merck & Co., Inc., priority 1991, dated 1992).

Target: T1, human renin (Homo sapiens, UniProt P00797)
T1 construct: added to human plasma (75 μl) containing EDTA; from tissue; host or cells: human plasma
T1 sequence (P00797 67-406): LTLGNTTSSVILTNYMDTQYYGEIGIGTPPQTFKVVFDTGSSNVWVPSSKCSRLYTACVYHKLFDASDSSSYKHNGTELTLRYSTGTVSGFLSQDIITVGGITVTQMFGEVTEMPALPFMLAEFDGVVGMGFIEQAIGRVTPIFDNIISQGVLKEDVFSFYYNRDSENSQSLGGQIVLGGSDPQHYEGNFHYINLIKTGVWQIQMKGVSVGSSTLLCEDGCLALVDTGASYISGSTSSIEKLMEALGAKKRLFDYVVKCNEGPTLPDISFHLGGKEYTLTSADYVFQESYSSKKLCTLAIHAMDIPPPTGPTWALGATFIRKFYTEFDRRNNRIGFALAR
Experiment: plasma renin assay (radioimmunoassay of angiotensin-I released in human plasma)
Assay type: biochemical
Settings: human renin and human renin substrate in human plasma, 37° C., pH 6.9, angiotensin-I by radioimmunoassay; read-out: IC50 (the molar concentration required to cause 50% inhibition), renin inhibitory activity
Experimental: It is based on the measurement, by radiommunoassay, of Angiotensin-I released from human renin substrate by human renin in human plasma. The inhibitor is dissolved in 0.01N HCl (10 μl) and added to human plasma (75 μl) containing EDTA, and angiotensin-I antibody ([…]) in 3M-Tris.HCl buffer (pH 6.9).
Free and bound ligand are separated by the addition of dextran-coated charcoal, and the amount of bound radio-ligand determined in a gamma counter.

Row | IC50 [nM] | Structure (SMILES)
1 | 7.2 | CC(C)(C)S(=O)(=O)C[C@@H](Cc1ccccc1)C(=O)N[C@@H](Cc1c[nH]cn1)C(=O)N[C@@H](CC1CCCCC1)[C@@H](O)CS(=O)(=O)CC(=O)NCCN1CCOCC1 [4-[2-[2-[[(2R,3S)3-[N^α -[(S)-2-[(t-Butylsulfonyl)-methyl]-3-phenylpropionyl]-L-histidylamino]-4-cyclohexyl-2-hydroxy-1-butyl]sulfonyl]-acetamido]ethyl]morpholine]
2 | 73 | CC(C)CC(SC[C@H](O)[C@H](CC1CCCCC1)NC(=O)[C@H](Cc1c[nH]cn1)NC(=O)[C@H](Cc1ccccc1)NC(=O)OC(C)(C)C)C(=O)NCCN1CCOCC1 (mixture of isomers) [4-[2-[[(2RS)-2-[[(2R,3S)-3-(Boc-L-phenylalanyl-L-histidylamino)-4-cyclohexyl-2-hydroxy-1-butyl]thio]methylpentanoyl]-4-methylpentanoyl]amino]ethyl]morpholine]
3 | 77 | CC(C)CC(C(=O)NCCN1CCOCC1)S(=O)(=O)C[C@H](O)[C@H](CC1CCCCC1)NC(=O)[C@H](Cc1c[nH]cn1)NC(=O)[C@H](Cc1ccccc1)NC(=O)OC(C)(C)C (stereo partly shown) [4-[2-[[2 ---- RS )-2 [X-sulfonyl]-4-methyl-pentanoyl]amino]ethyl]morpholine]
4 | 20 | CN1CCN(C(=O)CS(=O)(=O)C[C@H](O)[C@H](CC2CCCCC2)NC(=O)[C@H](Cc2cnc[nH]2)NC(=O)[C@H](Cc2ccccc2)NC(=O)OC(C)(C)C)CC1 [4-[2-[X-sulfonyl]acetyl]-1-methylpiperazine]
5 | 19 | CC(C)(C)OC(=O)N[C@@H](Cc1ccccc1)C(=O)N[C@@H](Cc1cnc[nH]1)C(=O)N[C@@H](CC1CCCCC1)[C@@H](O)C[S+]([O-])CC(=O)NCCN1CCOCC1 (stereo partly drawn) [4-[[(2R,3S)-3-(Boc-L-phenylalanyl-L-histidylamino)-4-cyclohexyl-2-hydroxy-1-butyl]-sulfinyl]acetyl]amino]ethyl]morpholine]
6 | 29 | CC(C)(C)OC(=O)NC(Cc1ccccc1)C(=O)NC(Cc1cnc[nH]1)C(=O)NC(CC1CCCCC1)C(O)CSCC(=O)NC1CN2CCC1CC2 (stereo not shown) [3-[2-[X-thio]acetamido}quinuclidine]
7 | 161 | CNCCN(C)C(=O)CSC[C@H](O)[C@H](CC1CCCCC1)NC(=O)[C@H](Cc1c[nH]cn1)NC(=O)[C@H](Cc1ccccc1)NC(=O)OC(C)(C)C [N-[2-[[(2R,3S)-3-(Boc-L-phenylalanyl-L-histidylamino)-4-cyclohexyl-2-hydroxy-1-butyl]thio]acetyl]-N,N'-dimethylethylenediamine]
8 | 88 | CC(C)CC(C(=O)NCCN1CCOCC1)[S+]([O-])C[C@H](O)[C@H](CC1CCCCC1)NC(=O)[C@H](Cc1cnc[nH]1)NC(=O)[C@H](Cc1ccccc1)NC(=O)OC(C)(C)C (stereo partly shown) [4-[2-[[(2 ---- RS )-2-[X-sulfinyl]-4-methyl-pentanoyl]amino]ethyl]morpholine]
9 | 29 | CN1CCN(C(=O)CSC[C@H](O)[C@H](CC2CCCCC2)NC(=O)[C@H](Cc2cnc[nH]2)NC(=O)[C@H](Cc2ccccc2)NC(=O)OC(C)(C)C)CC1 [4-[2-[X-thio]acetyl]-1-methylpiperazine, 4-[2-[[(2R,3S)-3-(Boc-L-phenylalanyl-L-histidylamino)-4-cyclohexyl-2-hydroxy-1-butyl]thio]acetyl]-1-methylpiperazine]
10 | 9.4 | CC(C)(C)OC(=O)N[C@@H](Cc1ccccc1)C(=O)N[C@@H](Cc1cnc[nH]1)C(=O)N[C@@H](CC1CCCCC1)[C@@H](O)CS(=O)(=O)CC(=O)NCCN1CCOCC1
11 | 904 | CC(C)(C)OC(=O)N[C@@H](Cc1ccccc1)C(=O)N[C@@H](Cc1c[nH]cn1)C(=O)N[C@@H](CC1CCCCC1)[C@@H](O)CSCC(=O)O [2-[X-thio]acetic acid, 2-[[(2R,3S)-3-(Boc-L-phenylalanyl-L-histidylamino)-4-cyclohexyl-2-hydroxy-1-butyl]thio]acetic acid]
12 | 58 | CCOC(=O)CSC[C@H](O)[C@H](CC1CCCCC1)NC(=O)[C@H](Cc1cnc[nH]1)NC(=O)[C@H](Cc1ccccc1)NC(=O)OC(C)(C)C [ethyl 2-[X-thio]acetate, ethyl 2-[[(2R,3S) 3-(Boc-L-phenylalanyl-L-histidylamino)-4-cyclohexyl-2-hydroxy-1-butyl]thio]acetate]
13 | 40 | CC(C)(C)OC(=O)N[C@@H](Cc1ccccc1)C(=O)N[C@@H](Cc1cnc[nH]1)C(=O)N[C@@H](CC1CCCCC1)[C@@H](O)CSCC(=O)NCCN1CCOCC1 [4-[2-[2-[X-thio]acetamido]ethyl]morpholine]

Row | Structure (SMILES) | IC50 [nM]
14 | CC(C)(C)OC(=O)N[C@@H](Cc1ccccc1)C(=O)N[C@@H](Cc1c[nH]cn1)C(=O)N[C@@H](CC1CCCCC1)[C@@H](O)CS(=O)(=O)CC(=O)NC1CCN(Cc2ccccc2)CC1 [1-benzyl-4-[2-[X-sulfonyl]acetamido]piperidine] | 34
15 | CC(C)(C)OC(=O)N[C@@H](Cc1ccccc1)C(=O)N[C@@H](Cc1c[nH]cn1)C(=O)N[C@@H](CC1CCCCC1)[C@@H](O)CSCC(=O)NCc1ccncc1 [4-[[2-[X-thio]acetamido]methyl]pyridine] | 92
16 | CC(C)(C)OC(=O)N[C@@H](Cc1ccccc1)C(=O)N[C@@H](Cc1c[nH]cn1)C(=O)N[C@@H](CC1CCCCC1)[C@@H](O)CS(=O)(=O)CC(=O)NC1C[N+]2([O-])CCC1CC2 (stereo partly shown) [3-[2-[X-sulfonyl]acetamido]quinuclidine-N-oxide] | 4.2
